Assay results as given in patent US8664379B2, “Fused heterocyclic compounds as ion channel modulators” (Gilead Sciences, Inc., priority 2008, dated 2014).

How the values were obtained:
[1] = molecular target: wild-type human cardiac sodium channel, hNav1.5 (late sodium current) (Homo sapiens, UniProt Q14524); assay: Late INa screening assay (PatchXpress whole cell patch clamp); type: cell-based; conditions: HEK293, 10 μM test compound; HEK293 cells expressing hNav1.5; late INa generated with 10 μM Tefluthrin (some experiments 50 nM ATX II); read-out: Late INa % blk (10 μM test cmpd)
Experimental: The late sodium current (Late INa) and peak sodium current (Peak INa) assays were performed on an automated electrophysiology platform, PatchXpress 7000A (MDS Analytical Technologies, Sunnyvale, Calif.), which uses the whole cell patch clamp technique to measure currents through the cell membrane of up to 16 cells at a time. The assay used an HEK293 (human embryonic kidney) cell line heterologously expressing the wild-type human cardiac sodium channel, hNav1.5, purchased from Millipore (Billerica, Mass.). No beta subunits were coexpressed with the Na channel alpha subunit. Cells were maintained with standard tissue culture procedures and stable channel expression was maintained with 400 μg/ml Geneticin in the culture medium. Cells isolated for use on PatchXpress were incubated for 5 minutes in Versene 1× and then for 2 minutes in 0.0125% Trypsin-EDTA (both at 37° C.) to ensure that 80-90% of the cells are single and not part of a cell cluster. Experiments were carried out at 24-27° C.
For both the Late INa and Peak INa assays, series resistance compensation was set to 50% and whole-cell compensation was performed automatically. Currents were low-pass filtered at 10 kHz and digitized at 31.25 kHz. Currents through open sodium channels were automatically recorded and stored in the DataXpress2 database (MDS Analytical Technologies, Sunnyvale, Calif.). Analysis was performed using DataXpress2 analysis software and data are compiled in Excel.
Compound stocks were routinely made in glass vials to 10 mM in dimethyl sulfoxide (DMSO). In some cases, when compounds were not soluble in DMSO, they were made in 100% ethanol. Stocks were sonicated as necessary. The extracellular solution for screening Late INa was composed of: 140 mM NaCl, 4 mM KCl, 1.8 mM CaCl2, 0.75 mM MgCl2, and 5 mM HEPES with pH adjusted to 7.4 using NaOH. The extracellular solution for screening Peak INa was composed of: 20 mM NaCl, 120 mM N-methyl-D glucamine, 4 mM KCl, 1.8 mM CaCl2, 0.75 mM MgCl2, and 5 mM HEPES with pH adjusted to 7.4 using HCl. The intracellular solution used to perfuse the inside of the cells for both the Late INa and Peak INa assays contains: 120 mM CsF, 20 mM CsCl, 5 mM EGTA, 5 mM HEPES and pH adjusted to 7.4 with CsOH. Compounds were diluted in extracellular solution to 10 μM in glass vials and then transferred to glass well plates before robotic addition to the cells. The 0Na extracellular solution used at the end of each experiment for the Late INa and Peak INa assays to measure baseline current contained: 140 mM N-methyl-D-glucamine; 4 mM KCl; 1.8 mM CaCl2; 0.75 mM MgCl2; 5 mM HEPES and pH was adjusted to 7.4 with HCl.
For the Late INa assay, sodium channels were activated every 10 seconds (0.1 Hz) by depolarizing the cell membrane to −20 mV for 250 milliseconds (ms) from a holding potential of −120 mV. In response to a −20 mV voltage step, typical Nav1.5 sodium currents activated rapidly to a peak negative current and then inactivated nearly completely within 3-4 ms.
All compounds were tested to determine their activity in blocking the late sodium current. Late INa current is generated by adding 10 μM Tefluthrin (pyrethroid) to the extracellular solution while recording Na currents. For some experiments, 50 nM ATX II (sea anemone toxin), another late INa activator, was used to generate the late component. Both activators generate late components that are large enough that block of the late component by compounds can be measured easily. For the purposes of the screening, late INa is defined as the mean current between 225 ms and 250 ms after stepping to −20 mV to activate Na channels. After establishing the whole cell recording configuration, late INa activators were added to each well 4 times over a 16-17 minute period so that the late component of the Na current reached a stable value. Compounds were then added (typically at 10 μM), in the presence of late INa activator, with 3 additions over the course of 7 or 8 minutes. […]

hERG potassium channel = molecular target: T1, hERG potassium channel (Homo sapiens, UniProt Q12809); assay: hERG screening assay (PatchXpress patch clamp); type: cell-based; conditions: hERG expressed in CHO cells, peak current at -50 mV; for hERG Patch Clamp hERG % blk 1 μm: 1 μM test compound; for hERG Patch Clamp hERG % blk 10 μm: 10 μM test compound
T1 construct: expressed in transfected cells
Experimental: Compounds were screened to test their activity in blocking the hERG potassium channel. The hERG channel was heterologously expressed in a CHO (Chinese Hamster Ovary) cell line. Cells were maintained with standard tissue culture procedures and stable channel expression was maintained with 500 μg/ml G418 in the culture medium. Cells were harvested for testing on the PatchXpress automated patch clamp with Accumax (Innovative Cell Technologies, San Diego, Calif.) to isolate single cells.
The following solutions were used for electrophysiological recordings. The external solution contained: 2 mM CaCl2; 2 mM MgCl2; 4 mM KCl; 150 mM NaCl; 10 mM Glucose; 10 mM HEPES (pH 7.4 with 1M NaOH, osmolarity). The internal solution contained: 140 mM KCl, 10 mM MgCl2, 6 mM EGTA, 5 mM HEPES, 5 mM ATP (pH adjusted to 7.25 with KOH).
hERG channels are activated when the voltage is stepped to +20 mV from the −80 mV holding potential. During a 5 second step at +20 mV, the channels activated and then largely inactivated, so the currents were relatively small. Upon returning to −50 mV from +20 mV, hERG currents transiently became much larger as inactivation was rapidly removed and then the channel closed. The first step to −50 mV for 300 ms was used as a baseline for measuring the peak amplitude during the step to −50 mV after channel activation. The peak current at −50 mV was measured both under control conditions and after addition of compound.
All compounds were prepared as 10 mM DMSO stocks in glass vials. Stock solutions were mixed by vigorous vortexing and sonication for about 2 minutes at room temperature. For testing, compounds were diluted in glass vials using an intermediate dilution step in pure DMSO and then further diluted to working concentrations in external solution. Dilutions were prepared no longer than 20 minutes before use.
After achieving the whole-cell configuration, cells were monitored for 90 seconds to assess stability and washed with external solution for 66 seconds. The voltage protocol described above was then applied to the cells every 12 seconds and throughout the whole procedure. Only cells with stable recording parameters and meeting specified health criteria were allowed to enter the compound addition procedure.
External solution containing 0.1% DMSO (vehicle) was applied to the cells first to establish the control peak current amplitude. After allowing the current to stabilize for 3 to 5 minutes, 1 μM and then 10 μM test compounds were applied. Each compound concentration was added 4 times and cells were kept in test solution until the effect of the compound reached steady state or for a maximum of 12 minutes. After addition of test compound, a positive control (1 μM Cisapride) was added—it must block >95% of the current for the experiment to be considered valid. Washout in the external solution compartment was performed until the recovery of the current reached steady state. Data were analyzed using DataXpress, Clampfit (Molecular Devices, Inc., Sunnyvale) and Origin 7 (Originlab Corp.)

wild-type human cardiac sodium channel, hNav1.5 (late sodium current), sequence (Q14524 whole entry): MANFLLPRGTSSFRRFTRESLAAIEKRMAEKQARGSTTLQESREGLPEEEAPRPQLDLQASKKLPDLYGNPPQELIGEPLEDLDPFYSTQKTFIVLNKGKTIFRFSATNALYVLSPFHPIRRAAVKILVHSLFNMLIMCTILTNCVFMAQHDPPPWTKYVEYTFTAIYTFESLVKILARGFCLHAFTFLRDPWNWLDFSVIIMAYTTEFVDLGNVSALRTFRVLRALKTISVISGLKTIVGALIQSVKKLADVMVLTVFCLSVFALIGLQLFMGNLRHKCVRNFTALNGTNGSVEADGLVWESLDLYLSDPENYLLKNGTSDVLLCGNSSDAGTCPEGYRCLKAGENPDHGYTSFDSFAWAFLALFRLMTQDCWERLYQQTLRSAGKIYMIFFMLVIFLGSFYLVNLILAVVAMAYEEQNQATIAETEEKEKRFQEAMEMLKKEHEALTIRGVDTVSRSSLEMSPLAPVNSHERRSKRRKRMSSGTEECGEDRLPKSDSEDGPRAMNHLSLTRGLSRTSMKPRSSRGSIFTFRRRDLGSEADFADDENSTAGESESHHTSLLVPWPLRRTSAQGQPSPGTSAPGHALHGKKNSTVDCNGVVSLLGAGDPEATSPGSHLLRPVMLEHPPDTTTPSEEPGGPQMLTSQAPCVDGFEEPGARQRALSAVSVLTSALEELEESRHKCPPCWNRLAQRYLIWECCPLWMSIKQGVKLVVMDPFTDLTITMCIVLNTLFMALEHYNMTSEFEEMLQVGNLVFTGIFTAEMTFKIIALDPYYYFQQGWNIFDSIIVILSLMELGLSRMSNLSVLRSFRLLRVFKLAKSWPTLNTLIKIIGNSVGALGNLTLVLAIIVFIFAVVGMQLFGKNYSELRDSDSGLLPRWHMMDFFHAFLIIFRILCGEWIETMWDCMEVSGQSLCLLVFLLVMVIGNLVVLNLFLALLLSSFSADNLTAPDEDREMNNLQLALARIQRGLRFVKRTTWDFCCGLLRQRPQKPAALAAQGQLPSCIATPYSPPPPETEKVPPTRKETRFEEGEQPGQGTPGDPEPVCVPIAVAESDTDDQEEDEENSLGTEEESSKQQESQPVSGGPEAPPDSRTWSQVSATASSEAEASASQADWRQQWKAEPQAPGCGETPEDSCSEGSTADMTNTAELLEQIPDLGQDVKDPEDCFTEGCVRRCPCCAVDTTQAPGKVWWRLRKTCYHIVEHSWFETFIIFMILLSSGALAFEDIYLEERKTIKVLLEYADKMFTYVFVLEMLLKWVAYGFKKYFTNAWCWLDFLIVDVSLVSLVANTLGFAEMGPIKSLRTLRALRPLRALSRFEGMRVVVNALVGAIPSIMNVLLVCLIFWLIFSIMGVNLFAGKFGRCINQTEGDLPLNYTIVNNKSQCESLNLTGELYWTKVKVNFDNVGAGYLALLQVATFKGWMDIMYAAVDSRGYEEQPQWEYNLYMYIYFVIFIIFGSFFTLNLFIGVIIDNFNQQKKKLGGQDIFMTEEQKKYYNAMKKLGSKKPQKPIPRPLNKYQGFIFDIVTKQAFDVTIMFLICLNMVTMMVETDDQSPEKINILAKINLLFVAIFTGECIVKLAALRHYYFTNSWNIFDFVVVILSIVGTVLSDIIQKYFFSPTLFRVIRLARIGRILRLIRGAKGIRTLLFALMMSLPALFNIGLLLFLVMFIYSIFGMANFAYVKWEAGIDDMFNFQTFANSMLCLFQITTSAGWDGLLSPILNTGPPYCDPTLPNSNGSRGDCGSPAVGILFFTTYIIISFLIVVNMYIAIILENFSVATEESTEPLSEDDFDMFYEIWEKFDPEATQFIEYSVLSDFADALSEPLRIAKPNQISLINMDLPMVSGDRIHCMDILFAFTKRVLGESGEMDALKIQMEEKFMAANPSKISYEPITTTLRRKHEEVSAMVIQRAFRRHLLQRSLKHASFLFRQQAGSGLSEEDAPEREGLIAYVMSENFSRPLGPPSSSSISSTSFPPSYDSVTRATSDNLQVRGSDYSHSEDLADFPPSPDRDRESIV
T1 sequence (Q12809 whole entry): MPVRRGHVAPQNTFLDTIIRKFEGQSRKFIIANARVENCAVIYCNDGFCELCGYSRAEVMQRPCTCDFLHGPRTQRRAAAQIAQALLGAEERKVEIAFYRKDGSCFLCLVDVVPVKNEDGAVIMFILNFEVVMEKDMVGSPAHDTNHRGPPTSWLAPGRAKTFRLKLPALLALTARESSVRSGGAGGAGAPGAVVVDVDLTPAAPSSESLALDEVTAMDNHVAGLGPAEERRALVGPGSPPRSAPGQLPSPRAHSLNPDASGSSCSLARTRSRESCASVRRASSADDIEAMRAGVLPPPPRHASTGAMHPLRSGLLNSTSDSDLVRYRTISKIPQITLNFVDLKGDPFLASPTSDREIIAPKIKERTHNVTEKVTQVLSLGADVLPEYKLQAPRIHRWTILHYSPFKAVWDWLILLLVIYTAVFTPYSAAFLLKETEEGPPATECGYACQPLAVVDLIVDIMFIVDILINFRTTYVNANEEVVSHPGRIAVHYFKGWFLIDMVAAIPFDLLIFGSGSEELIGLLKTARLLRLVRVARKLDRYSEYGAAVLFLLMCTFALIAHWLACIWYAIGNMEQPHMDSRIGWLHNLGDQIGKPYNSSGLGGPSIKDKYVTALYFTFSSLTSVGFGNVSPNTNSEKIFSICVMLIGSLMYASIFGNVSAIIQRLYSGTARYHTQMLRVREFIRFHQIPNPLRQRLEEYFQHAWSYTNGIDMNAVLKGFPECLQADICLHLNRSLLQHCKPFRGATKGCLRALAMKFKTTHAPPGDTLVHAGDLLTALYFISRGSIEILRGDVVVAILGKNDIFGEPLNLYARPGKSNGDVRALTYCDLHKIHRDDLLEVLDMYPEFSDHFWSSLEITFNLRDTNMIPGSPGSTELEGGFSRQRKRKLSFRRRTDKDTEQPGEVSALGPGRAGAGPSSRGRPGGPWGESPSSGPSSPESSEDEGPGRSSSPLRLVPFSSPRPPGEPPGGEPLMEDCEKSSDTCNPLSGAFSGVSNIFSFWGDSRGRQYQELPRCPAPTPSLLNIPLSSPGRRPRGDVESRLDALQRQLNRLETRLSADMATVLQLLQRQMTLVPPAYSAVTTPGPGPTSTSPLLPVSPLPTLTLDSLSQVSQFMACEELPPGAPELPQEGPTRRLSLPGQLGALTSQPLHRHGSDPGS

SMILES	inhibition at 10 µM [1] [%]	hERG Patch Clamp hERG % blk 1 μm (hERG potassium channel) [%]	hERG Patch Clamp hERG % blk 10 μm (hERG potassium channel) [%]
O=C1CCc2cc(-c3cccc(F)c3)ccc2N1 [Compound 1, 6-(3-fluorophenyl)-3,4-dihydroquinolin-2(1H)-one]	74	10	19
O=C1CCc2cc(-c3ccccc3)ccc2N1 [Compound 4, 6-phenyl-3,4-dihydroquinolin-2(1H)-one]	48	10	16
O=C1CCc2cc(-c3ccc(C(F)(F)F)cc3)ccc2N1CCO [Compound 14, 1-(2-hydroxyethyl)-6-[4-(trifluoromethyl)phenyl]-3,4-dihydroquinolin-2(1H)-one]	29	10	28
O=C1CCc2cc(-c3ccc(F)c(F)c3)ccc2N1CCO [Compound 15, 6-(3,4-difluorophenyl)-1-(2-hydroxyethyl)-3,4-dihydroquinolin-2(1H)-one]	36	13	59
CN1C(=O)CCc2cc(-c3cccc(F)c3)ccc21 [Compound 21, 6-(3-fluorophenyl)-1-methyl-3,4-dihydroquinolin-2(1H)-one]	65	11	36
CCOC(=O)CN1C(=O)CCc2cc(-c3ccc(OC(F)(F)F)cc3)ccc21 [Compound 25, ethyl {2-oxo-6-[4-(trifluoromethoxy)phenyl]-3,4-dihydroquinolin-1(2H)-yl}acetate]	20	26	32
O=C1CCc2cc(-c3ccc(F)cc3F)ccc2N1Cc1csc(-c2ccc(Cl)cc2)n1 [Compound 26, 1-{[2-(4-chlorophenyl)-1,3-thiazol-4-yl]methyl}-6-(2,4-difluorophenyl)-3,4-dihydroquinolin-2(1H)-one]	20	10	10
COCCN1C(=O)CCc2cc(-c3ccc(F)cc3F)ccc21 [Compound 27, 6-(2,4-difluorophenyl)-1-(2-methoxyethyl)-3,4-dihydroquinolin-2(1H)-one]	52	12	47
CC(C)(C)OC(=O)CN1C(=O)CCc2cc(-c3ccc(C(F)(F)F)cc3)ccc21 [Compound 29, tert-butyl {2-oxo-6-[4-(trifluoromethyl)phenyl]-3,4-dihydroquinolin-1(2H)-yl}acetate]	69	11	97
O=C1CCc2cc(-c3ccc(OC(F)(F)F)cc3)ccc2N1 [Compound 34, 6-[4-(trifluoromethoxy)phenyl]-3,4-dihydroquinolin-2(1H)-one]	60	13	37
Cc1cc(CN2C(=O)CCc3cc(-c4ccc(OC(F)(F)F)cc4)ccc32)no1 [Compound 39, 1-[(5-methylisoxazol-3-yl)methyl]-6-[4-(trifluoromethoxy)phenyl]-3,4-dihydroquinolin-2(1H)-one]	60	12	96
O=C(O)CN1C(=O)CCc2cc(-c3ccc(C(F)(F)F)cc3)ccc21 [Compound 44, {2-oxo-6-[4-(trifluoromethyl)phenyl]-3,4-dihydroquinolin-1(2H)-yl}acetic acid]		10	10
COCCN1C(=O)CCc2cc(-c3ccc(C(F)(F)F)cc3)ccc21 [Compound 49, 1-(2-methoxyethyl)-6-[4-(trifluoromethyl)phenyl]-3,4-dihydroquinolin-2(1H)-one]	60	10	42
O=C(O)CN1C(=O)CCc2cc(-c3ccc(Cl)c(F)c3)ccc21 [Compound 58, [6-(4-chloro-3-fluorophenyl)-2-oxo-3,4-dihydroquinolin-1(2H)-yl]acetic acid]	13	10	10
O=C(O)CN1C(=O)CCc2cc(-c3cccc(C(F)(F)F)c3)ccc21 [Compound 60, 2-(2-oxo-6-(3-(trifluoromethyl)phenyl)-3,4-dihydroquinolin-1(2H)-yl)acetic acid]	25	10	10
O=C(O)CN1C(=O)CCc2cc(-c3ccc(Cl)c(Cl)c3)ccc21 [Compound 69, [6-(3,4-dichlorophenyl)-2-oxo-3,4-dihydroquinolin-1(2H)-yl]acetic acid]	16	10	10
N#CCN1C(=O)CCc2cc(-c3ccc(C(F)(F)F)cc3)ccc21 [Compound 90, 2-(2-oxo-6-(4-(trifluoromethyl)phenyl)-3,4-dihydroquinolin-1(2H)-yl)acetonitrile]	22		
CCOC(=O)c1cccc(CN2C(=O)CCc3cc(-c4ccc(C(F)(F)F)cc4)ccc32)c1 [Compound 91, ethyl 3-((2-oxo-6-(4-(trifluoromethyl)phenyl)-3,4-dihydroquinolin-1(2H)-yl)methyl)benzoate]	31		
